Literature values as cited in patent publication US6974895B1, “Transgenic legume plants modified to produce resveratrol glucoside and uses thereof” (The Samuel Roberts Noble Foundation, Inc., priority 1999, dated 2005).

Tested on: aberrant colon crypt formation
Conditions: azoxymethane treated rat model (Steele, et al. 1998)

Oc1ccc(C=Cc2cc(O)cc(O)c2)cc1 [resveratrol, 3,5,4′-trihydroxystilbene]
inhibition of aberrant colon crypt formation: significant inhibition
